The values that follow come from patent publication US7129368B2, “Platinum carboxylate anticancer compounds” (Sonus Pharmaceuticals, Inc., priority 2004, dated 2006).

Series [1] deals with HT29 colorectal carcinoma cell line. As to the kind of experiment: MTS cytotoxicity assay in HT29 cells. Type of series: cell-based. Particulars: 72 hours of treatment, read-out: Growth Inhibition (GI50). As to the method:
(§1) MTS Assay. […] Cytotoxicity was measured in six cell lines: two colorectal carcinoma cell lines, HT29 (ATCC # CCL-218) and HCT-116 (ATCC # CCL-247); two small cell lung cancer cell lines, NCI-H69 (ATCC # HTB-119) and NCI-H69/AR (ATCC # CRL-11351); and two ovarian cancer cell lines, A2780 (ECACC # 93112519) and A2780/DPPt (similar strain, A2780 cis, available at ECACC # 93112517). Viable cell number was measured using the MTS cell viability assay ([…] 96 AQueous One Solution Cell Proliferation Assay kit available from Promega, USA). Cell growth inhibition was quantified by measuring absorbance at 490 nm, which is directly proportional to the number of living cells in culture.
(§2) The platinum compounds were prepared as 10 mM stock solutions in water containing 5% dextrose (D5W). Cisplatin was prepared in saline. Dosing solutions were prepared by serial dilution of the stock solutions in cell culture medium to provide final concentrations of 0.006–100 μM.
(§3) All tumor lines were propagated under sterile conditions and incubated at 37° C. in HEPA-filtered CO2 tissue culture incubators with 5% CO2 and 95% humidity in colorless RPMI 1640 medium (Mediatech, Hemdon, Va.) containing 5% fetal bovine serum (complete medium). […]
(§4) Viable cell number was measured by the MTS dye conversion assay after a total of 72 hours of treatment. […] The absorbance was measured at 490 nm on a Coulter microplate reader.
A general note: Formazan colour is commonly taken as a measure of viable cells.

The subject of series [2] is HCT-116 colorectal carcinoma cell line. In words: MTS cytotoxicity assay in HCT-116 cells. It counts as cell-based. Particulars: HCT-116, MTS, 72 hours of treatment; read-out: Growth Inhibition (GI50). As to the method: as §1, §2, §3, §4
The test system of series [3] is NCI-H460 non-small cell lung cancer cells. As to the kind of experiment: ALAMAR BLUE cytotoxicity assay in NCI-H460 cells. The conditions noted are these: H-460, ALAMAR BLUE, 48 hours incubation with drug. It counts as cell-based. As to the method: (§5) ALAMAR BLUE Assay. […] Cytotoxicity was measured in two cell lines: a colorectal carcinoma cell line (HCT-116); and a non-small cell lung cancer cell line (NCI-H460). The marker used to quantify cell growth inhibition was ALAMAR BLUE, a non-fluorescent blue dye that is reduced to a fluorescent red product by viable cells. The amount of fluorescence is proportional to the number of viable cells.
(§6) Screening in HCT-116 cells. HCT-116 colorectal carcinoma cells (ATCC # CCL-247) were inoculated into a set of twenty-four 96-well microtiter plates containing 100 μl of McCoy's 5A media (HyClone, Logan, Utah) per well to a plating density of 7500 cells per well. After cell inoculation, the microtiter plates were incubated at 37° C., 5% CO2, 95% air and 100% relative humidity for 24 hours. After 24 hours incubation, ALAMAR BLUE reagent (Biosource, Camarillo, Calif.) was added to two plates to a final concentration of 10% v/v in each well. The plates were returned to the incubator for 4 hours and then read in a Perkin Elmer HTS 7000 Bio Assay Reader using an excitation wavelength of 535 nm and an emission wavelength of 590 nm to determine the cell population at the time of drug addition—time zero.
(§7) Two no-drug control plates were also prepared.
(§8) Following drug addition, the plates were incubated for an additional 48 hours at the conditions above.
(§9) After 48 hours of incubation the plates were removed and ALAMAR BLUE reagent was added to a final concentration of 10% v/v to each well. The plates were returned to the incubator for 4 hours and read in the Bio Assay Reader as described above.
Screening in NCI-H460 cells. The screening protocol above was repeated using NCI-H460 non-small cell lung cancer cells (ATCC # HTB-177) plated to a density of 10,000 cells per well in RPMI media (Mediatech, Inc., Herndon, Va.).

Series [4] relates to NCI-H69/AR small cell lung cancer cell line. In words: MTS cytotoxicity assay in NCI-H69/AR cells. It counts as cell-based. Particulars: 72 hours of treatment, read-out: Growth Inhibition (GI50). As to the method: as §1, §2, §3, §4
Series [5] concerns A2780 ovarian cancer cell line. As to the kind of experiment: MTS cytotoxicity assay in A2780 cells. Type of series: cell-based. Particulars: 72 hours of treatment, read-out: Growth Inhibition (GI50). As to the method: as §1, §2, §3, §4
In series [6] the test system is NCI-H69 small cell lung cancer cell line. As to the kind of experiment: MTS cytotoxicity assay in NCI-H69 cells. It counts as cell-based. The conditions noted are these: 72 hours of treatment, read-out: Growth Inhibition (GI50). How it is done:
as §1, §2, §3, §4

Series [7] deals with HCT-116 colorectal carcinoma cells. In words: ALAMAR BLUE cytotoxicity assay in HCT-116 cells. It counts as cell-based. Particulars: HCT-116, ALAMAR BLUE, 48 hours incubation with drug. As to the method: as §5, §6, §7, §8, §9
(The colour change of resazurin is a common sign of viable cells or microbes.)

Series [8] can be described thus: Effect of pH on CDTA-diplatinum/CDTA-monoplatinum interconversion (HPLC). Type of series: physicochemical. As to the method:
Cyclohexane-trans-1,2-diaminetetraacetic-acid-diplatinum (CDTA-diplatinum) was prepared according to Example 1. Three solutions of CDTA-diplatinum were prepared: 1 mg/ml in water (pH ˜6.5) (Solution 1); 1 mg/ml in 0.01 N NaOH (pH˜9.5) (Solution 2); and 1 mg/ml in 0.01 N HCl (pH˜2) (Solution 3).

For series [9], the system named is A2780/DPPt ovarian cancer cell line. In words: MTS cytotoxicity assay in A2780/DPPt cells. It counts as cell-based. Particulars: A2780/DDPT, 72 hours of treatment, read-out: Growth Inhibition (GI50).
Description: MTS Assay. […] Cytotoxicity was measured in six cell lines: two colorectal carcinoma cell lines, HT29 (ATCC # CCL-218) and HCT-116 (ATCC # CCL-247); two small cell lung cancer cell lines, NCI-H69 (ATCC # HTB-119) and NCI-H69/AR (ATCC # CRL-11351); and two ovarian cancer cell lines, A2780 (ECACC # 93112519) and A2780/DPPt (similar strain, A2780 cis, available at ECACC # 93112517). Viable cell number was measured using the MTS cell viability assay ([sequence] 96 AQueous One Solution Cell Proliferation Assay kit available from Promega, USA). Cell growth inhibition was quantified by measuring absorbance at 490 nm, which is directly proportional to the number of living cells in culture.
The mark [10] stands for this setting: Solution 1: 1 mg/ml in water (pH ~6.5).
[11] abbreviates: Solution 2: 1 mg/ml in 0.01 N NaOH (pH ~9.5).
Setting [12] is: Solution 3: 1 mg/ml in 0.01 N HCl (pH ~2).

For orientation: GI50 means the concentration giving 50% growth inhibition.

Regarding “cyclohexane-trans-1,2-diaminetetraacetic-acid-monoplatinum [CDTA-monoplatinum]”, the GI50 turned out to be 65 µM in series [1]; 38 µM in series [2]; 9.71 µM in [3]; 18 µM in series [4]; 5.57 µM in series [5]; 10 µM in series [6]. Besides, growth in series [7] was halved (GI50) at 6.4 µM. The “percentage of species by HPLC in a solution of CDTA-diplatinum (Example 1)” value in series [8] (setting [10]) worked out at 45%; in series [8] (setting [11]) it was 99%; in series [8] (setting [12]) it was 98%.

Regarding `N.N.O=C([O-])C1(C(=O)[O-])CCC1.[Pt+2]` [Carboplatin, cis-diamine[1,1-cyclobutanedicarboxylato(2-)]—O,O′-platinum (II), reference compound], the GI50 in series [3] stood at 9 µM; in series [7] it was 159 µM.

On to “cyclohexane-trans-1,2-diaminetetraacetic-acid-diplatinum [CDTA-diplatinum]”, for which the GI50 was 78 µM in series [1]; 24 µM in series [2]; 0.371 µM in series [3]; 8.9 µM in series [4]; 5.45 µM in series [5]; 49 µM in series [9]. Besides, the GI50 stood at 6.69 µM in [6] and 0.55 µM in [7]. Besides, the “percentage of species by HPLC in a solution of CDTA-diplatinum (Example 1)” value in [8] (setting [10]) worked out at 54%; in series [8] (setting [11]), 1%; in series [8] (setting [12]) it was 2%.

On to `N.N.[Cl][Pt][Cl]` [Cisplatin, cis-[PtCl2(NH3)2], reference compound], for which the 50% growth inhibitory concentration (GI50) in series [3] is 469 µM; in series [7] it was 4 µM.
